Measurements taken from patent publication US20250064932A1, “GLYCO-ENGINEERED CAR-T CELLS” (VIB VZW, priority 2021, published 2025).
Read-outs that look alike come from different tables or passages of the source.

How the values were obtained:
[1] = tested on: human lymphocytes and neutrophils; conditions: up to 1% v/v DMSO, PMA for 4 hours; cited from earlier work
[2] = tested on: human CD8+ T cells; conditions: for T cell proliferation: IL-2
Protocol: Human CD8^+ T cells were purified and incubated with human T cell-activator CD3/CD28 dynabeads for T cell expansion and activation, and this in the presence of different cytokine combinations and increasing concentrations of DMSO. In order to evaluate the effect of DMSO on the proliferation of T cells in culture, cells were labeled with Tag-it Violet™ proliferation and cell tracking dye. […] Flow cytometry analysis was performed on multiple days following start up until day 11 in culture in order to evaluate T cell activation and differentiation markers.
(§1) For human T cell phenotyping, cells were labeled with fluorescent antibodies against human CD8, CD62L and CD45RA (BD Biosciences) and CD3, CD4, CD25, CD69, CD197 (CCR7), TIM-3 (CD366), CD152 (CTLA4) and CD279 (PD-1) (Biolegend). A Fixable dye eFluor™ 780 (eBioscience) was used to evaluate live/dead cells.
Peripheral blood lymphocytes were prepared by a Ficoll-Paque density centrifugation as described in the instruction manual for Leucosep™ (Greiner bio-one). CD8^+ T cells were isolated by negative selection (MojoSort™ Human CD8 T cell Isolation kit, Biolegend) according to the manufacture's protocol. Cells were cultured in RPMI 1640 medium (Gibco-BRL) supplemented with L-glutamine (0.03%, Gibco), 0.4 mM sodiumpyruvate (Merck Millipore) and 50 μM β-mercapto-ethanol (Sigma Aldrich) and 10% heat-inactivated fetal calf serum (FCS), in 48 well plates (Sarstedt) and stimulated with human anti-CD3/CD28 Dynabeads (1 bead:3 cell ratio) (Thermo Fisher Scientific) for 4 days at 37° C. Prior to cell seeding, Dynabeads and bead-bound cells were removed by separation on a magnet (after transfer to an Eppendorf tube) and the supernatant containing the CD8^+ T cells was collected. Cells were washed twice with PBS before putting them in culture with different cytokine combinations: (1) recombinant human (rh) IL-2 at 50 units/mL (Life Technologies); (2) rhIL-7 at 10 ng/mL (R&D systems) and rhIL-15 at 1 ng/mL (Miltenyi). Cytokines and medium were replaced every 2-3 days. Where indicated, increasing concentrations of DMSO (Sigma) were added as given by % v/v.
(§2) Human T cells were stained with Tag-it Violet™ Proliferation and Cell Tracking Dye (Biolegend), according to manufacturer's protocol.

[3] = tested on: human CD3+ T cells
Description: A protocol for in vitro isolation of CD3^+ T cell population used herein includes stimulation of purified human CD3^+ T cells in the presence of IL-12 and culturing in the presence of either IL-2 or IL-7/-15. This cultivation method provides for CD3^+ T cells populations skewed towards a naive phenotype. […] To this end, we validated the effect of DMSO on the activation and differentiation of CD3^+ T cells in the presence of IL-12 and subsequent culturing with different cytokine combinations.
We therefore evaluated the impact of increasing DMSO concentrations on the immunophenotype at day 14, and the impact of the highest DMSO concentration (1.2%) on the immunophenotype of CD3^+ T cell (sub)populations at day 13.
as §1
Leukocyte-enriched buffy coat samples were obtained from healthy donors attending the Red Cross center after informed consent and ethical committee approval (EC2019-1083). Peripheral blood lymphocytes were prepared by a Ficoll-Paque density centrifugation as described in the instruction manual for Leucosep™ (Greiner bio-one). CD3^+ T cells were isolated by negative selection (MojoSort™ Human CD3 T cell selection kit, Biolegend) according to the manufacture's protocol. Cells were cultured in IMDM+Glutamax medium (Gibco-BRL) supplemented with 10% heat-inactivated fetal calf serum (FCS) and stimulated with Immunocult™ Human CD3/CD28 T-Cell Activator (Stemcell Technologies) (25 μL/10^6 cells) for 3 days at 37° C. in the presence of 10 ng/mL IL-12 (Biolegend). Prior to cell seeding, cells were washed twice with PBS before putting them in culture with different cytokine combinations: (1) recombinant human (rh) IL-2 at 50 units/mL (Miltenyi); (2) rhIL-7 at 10 ng/mL (Miltenyi) and rhIL-15 at 10 ng/mL (Miltenyi). Cytokines and medium were replaced every 2-3 days. Cell densities were maintained between 1×10^6 and 3×10^6 cells/mL. Where indicated, increasing concentrations of DMSO (Sigma) were added as given by % v/v.
as §2

[4] = tested on: lymphoma cell; conditions: cited from earlier work
[5] = tested on: CD4+ T cell; conditions: cited from earlier work
[6] = DMSO treated vs untreated, day 11, 1.2% DMSO

C[S+](C)[O-] [DMSO, Dimethyl sulfoxide]
IFN-γ and TNF-α production in the cytoplasm [1]: did not change IFN-γ and TNF-α production | effect on survival of the cells [2]: does not have a negative effect on survival | survival rate [2]: small increases in survival rate | T cell proliferation ([2]; 0.6% DMSO): still tolerated | T cell proliferation ([2]; 1.2% DMSO): marked decrease in T cell proliferation | CD8+ T cell differentiation ([2]; CD8+ T cells purified from the same donor, IL-12 stimulation, IL-7 and IL-15, 1.2% DMSO, day 13): clearly skewed from naïve-like towards a TCM phenotype | expression level of CD25 [2, 6]: lower | expression of CD69 [2, 6]: higher | decrease in proportion of CD8+ T cells expressing TIM-3 ([2]; IL-2, increasing DMSO): ~4% | proportion of cells expressing PD-1 after stimulation ([2]; IL-2, increasing DMSO): seems to decrease faster by day 7 | T cell differentiation ([2]; IL-7 and IL-15): preferentially differentiate towards a TCM phenotype | DMSO concentration with inhibitory effect on T cell proliferation ([2]; IL-7 and IL-15, prolonged culture): ≥ 0.6% | TIM-3 expression level ([2]; fluorescence intensity, in the presence of DMSO): markedly reduced | frequency of CD25 positive cells ([2]; increasing DMSO (0.1%-1.2%)): decreases in time and with increasing DMSO concentration | proportion of CD69 positive cells ([2]; increasing DMSO (0.1%-1.2%)): increases with increasing concentrations of DMSO | T cell differentiation subsets ([2]; increasing DMSO, most clear with IL-2, day 11): a decrease in naive and effector CD8^+ T cells in favor of an increase in memory T cells | cell surface marker expression (CD25, CD69, PD-1) ([3]; 1.2% DMSO): cell surface marker expression is increased | frequency of CD25 and CD69 positive cells ([3]; 1.2% DMSO, IL-7 and IL-15, day 13): increases in the presence of DMSO | CD3+ T cell differentiation ([3]; 1.2% DMSO, day 13): skews CD3^+ T cell differentiation towards a central memory phenotype | proportion of cells expressing PD-1 ([3]; 1.2% DMSO, day 13): seems to slightly increase | TCM population of CD8+ T cells ([3]; 1.2% DMSO, about 20% in the untreated condition): over 80% | expression of activation and exhaustion markers (CD25, CD69, PD-1) ([3]; DMSO up to 0.6%): does not alter the expression of activation and exhaustion markers | CD3+ T cell survival and subset distribution ([3]; human, 13 day, 1.2 % v/v): did not impact CD3^+ T cell survival nor CD4′/CD8′ subset distribution | CD3+ T cell survival and proliferation ([3]; human, 14 day): did not impact CD3^+ T cell survival and proliferation | impact on CD4+ T cell differentiation ([3]; increasing DMSO): less pronounced | CD4+/CD8+ subset distribution ([3]; increasing DMSO, day 14): does not have an impact on the subset distribution | DMSO concentrations at which lymphoma cell death is prevented [4]: 1-2% | DMSO concentrations that suppress CD4+ T cell activation, cell growth and cytokine secretion [5]: 0.1-1%
